Patent US20110263657A1, “DIARYL UREAS FOR TREATING HEART FAILURE” (BAYER SCHERING PHARMA AKTIENGESELLSCHAFT, priority 2008, published 2011)

Test system: mouse models of pressure-induced heart failure
Experiment: Pressure-induced heart failure (TAC) in mice, organ weights and hemodynamic measurements
Type: in vivo
Conditions: banded (TAC) mice, 50 mg/kg/d po for 4 weeks
Procedure: The effects of the compound and drug combinations according to the invention are tested in vivo in mouse models of pressure-induced heart failure.
Methods: Pressure-Induced Heart Failure (TAC)
Surgery: 8 weeks old mice were pre-anesthetized for 2-3 min in an isofluran flooded box and then intubated (tubus of own fabrication).
Mice were placed on the right side on a heating panel and the tubus was connected to a ventilation pump (Mini Vent Type 845, Hugo Sachs Electronic) which allowed the further ventilation of mice with isofluran (1.5%).
Mice were prepared for the surgery: eyes moistened with Bepanthen® salve (pharmaceutical ointment containing dexpanthenol), operation field shaved and disinfected, mice fixated with tape in a right lateral position.
The skin cut was placed ca 2 mm behind the left elbow and was 5 mm length and vertical. Pectoral muscles were separated until ribs. A wound-spreader was placed between the 2nd and the 3rd rib and thymus was visualized. After pushing by side the thymus V. cava, A pulmonalis and Aorta with both carotid branching were viewed. With help from a curved polished vessel catheter a ligation thread was placed around the aorta between both carotid branching. The aorta was constricted to a diameter of 0.6 mm with help from a splint.
By sham operated mice the same procedure was effectuated but the aorta was not constricted.
Before they woke up, mice were given 5 mg/5 ml/kg sc Rimadyl® (Pfizer, Carprofen), wound was cleaned with […] and coated with antibiotic salve (Neomycin® salve) and Bepanthen® salve was removed from the eyes.
After awaking from anesthesia the tubus was taken off and mice were placed in their cages heated with heating panels for at least half an hour.
Mice were divided into 3 groups (n=10-12): • sham operated with vehicle treatment • placebo with vehicle treatment • Sorafenib: 50 mg/kg/d in vehicle
Substances were dissolved in 10% Ethanol, 40% Solutol and 50% water.
Application volumes: 10 ml/kg/d po
Treatment: begin 1 day after surgery for 4 weeks
After 4 weeks of treatment hemodynamic measurement were performed and mice were sacrificed.
Hemodynamic measurements: Mice were pre-anesthetized for 2-3 min in an isofluran flooded box, followed by fixation in an anesthesia mask (continuous flow of 1.5% isofluran by spontaneous breathing of the mouse). Mice were placed on the back on a heating panel.
Throats were shaved and the skin incised on the median line. The right A. carotis was prepared and ligated cranial. A tip-catheter (Millar Micro-Tip-Transducer, 1.0 oder 1.4 French, Firma HSE) was introduced in the right A. carotis and pushed into the left ventricle and fixated. There, pressure of the left ventricle was registered for a few minutes (after reaching a steady state) over the catheter and analyzed by the Millar Chart 5 software. After the measurements blood samples were taken. Finally organs (heart, lung, liver, right kidney) were collected.

CNC(=O)c1cc(Oc2ccc(NC(=O)Nc3ccc(Cl)c(C(F)(F)F)c3)cc2)ccn1 [Sorafenib, 4{4-[3-(4-chloro-3-trifluoromethylphenyl)-ureido]-phenoxy}-pyridine-2-carboxylic acid methyl amide]
Relaxation constant tau, increment: inhibited | Heart weight/body weight ratio (hypertrophy) (compared to sham operated mice): completely inhibited | Left ventricular weight/body weight ratio (hypertrophy) (compared to sham operated mice): completely inhibited | Left ventricular end diastolic pressure, augmentation compared to sham operated mice (p<0.05 compared to placebo): 7% | Left ventricular systolic pressure, augmentation compared to sham operated mice (p<0.05 compared to placebo): 8%
